Experimental findings from publication PMC10246841, “CCX559 is a potent, orally-administered small molecule PD-L1 inhibitor that induces anti-tumor immunity” (PLOS ONE, 2023) are described below.

For assay [1], the target named is T1, PD-L1 (Homo sapiens, UniProt Q9NZQ7).
T1 construct: gene CD274; with PD-1 (displaced in the assay); PD-L1 homodimer induced
Description: plate-based (ELISA-type) PD-1/PD-L1 binding inhibition assay with recombinant proteins; also CD80/PD-L1 inhibition and PathHunter PD-L1 dimerization in U2OS cells. On the technique in general: An ELISA detects its analyte on a solid surface through an enzyme-linked reagent.

Assay [2] deals with T2, cynomolgus PD-L1 (Macaca fascicularis, UniProt G7PSE7).
T2 construct: with PD-1 (displaced in the assay)
T2 sequence (G7PSE7 19-238 limits assumed): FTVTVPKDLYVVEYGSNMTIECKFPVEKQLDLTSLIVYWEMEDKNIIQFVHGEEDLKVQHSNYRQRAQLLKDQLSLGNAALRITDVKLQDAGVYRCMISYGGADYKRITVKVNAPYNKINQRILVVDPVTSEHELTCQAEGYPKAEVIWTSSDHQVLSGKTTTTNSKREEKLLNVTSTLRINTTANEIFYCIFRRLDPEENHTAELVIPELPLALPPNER
Description: in vitro cynomolgus PD-L1/PD-1 interaction inhibition assay (S5 Fig). Format: binding.

T1 sequence (Q9NZQ7 19-290): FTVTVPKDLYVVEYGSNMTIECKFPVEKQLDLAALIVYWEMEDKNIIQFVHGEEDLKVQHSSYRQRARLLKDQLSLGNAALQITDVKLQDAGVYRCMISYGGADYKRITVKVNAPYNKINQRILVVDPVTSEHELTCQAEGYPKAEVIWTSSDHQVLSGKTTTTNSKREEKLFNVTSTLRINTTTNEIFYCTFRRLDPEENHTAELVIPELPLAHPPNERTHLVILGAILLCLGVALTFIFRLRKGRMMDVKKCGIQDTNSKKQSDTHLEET

Broadly, the IC50 is the midpoint of a concentration-inhibition curve. With CCX559, the IC50 stood at 0.47 nM in assay [1] and 0.21 nM in assay [2].
